These results are taken from publication PMC11203266, “Continuous evolution of compact protein degradation tags regulated by selective molecular glues” (Science (New York, N.Y.), 2024).

One assay has as its target T1, DDB1•CRBN (Homo sapiens, UniProt Q96SW2).
T1 construct: made in house
Briefly: Competitive fluorescence anisotropy (polarization) vs thalidomide-Cy5. Particulars: competition with thalidomide–Cy5; KD estimated from Ki. Type of assay: binding. On the procedure:
Competitive fluorescence polarization experiments were performed according to previously reported methods ([65]). All experiments were performed in 25 mM HEPES, […], 1 mM TCEP, pH 7.4. A pre-complexed sample was prepared by incubating DDB1-CRBN (400 nM) with thalidomide–Cy5 conjugate (fig. S2A) (80 nM) at RT for 30 minutes with gentle shaking (220 rpm). […] Polarization values were measured on an Infinite M1000 Pro microplate reader (Tecan) following 1 hour of incubation at RT with gentle shaking. A total of three independent measurements were acquired and averaged per biological sample to generate the values shown in figure S2C. All mP values were normalized between 0 and 100 using the formula NormalizedmP=[(x−minimum)/[…]]∗100 , where ‘‘x’’ is the mP value of the sample and ‘‘minimum’’ and ‘‘maximum’’ are the minimum and maximum mP values, respectively, across all samples. KD values were estimated from computed Ki-values as previously described ([65]).

A further assay deals with PLK1-SD40. In words: Immunoblot, endogenous SD40-tagged PLK1 in HEK293T cells. Type of assay: cell-based, human. Particulars: 2 hours of treatment. The text has this: (§1) Next, we evaluated the installation of SD40 at endogenous genomic target genes in mammalian cells using twin prime editing (twin PE) ([54], [75]). We optimized prime editing parameters, including spacer position and prime editor construct ([30]), to insert SD40 at the C-terminus of PLK1 with 26% editing efficiency and 8.8% indel byproducts in HEK293T cells (Fig. 3E, fig. S13), enabling rapid isolation of a homozygous PLK1-SD40 cell line. PLK1 is an essential cell-state regulator ([76]), and complete knockdown for 24 hours is cytotoxic. […] We also used twin prime editing to install SD40 at the N-terminus of BRD4 yielding 7.7% knock-in of SD40 in K562 cells (Fig. 3E, S13) with 4.3% indel byproducts. […] For comparison, we also attempted scarless insertion of SD40 and FKBP12^F36V from the dTag system (324 base pairs) ([17]) at the N-terminus of BRD4 using Cas9 nuclease-directed HDR using two different sgRNAs and a double-strand donor DNA template. […]
(§2) HEK293T or K562 cells were plated at a density of 1.6 x 10^5 cells/well in a 24-well plate coated with poly-D-lysine (Corning) in 1 mL media (DMEM + 10% FBS for HEK293T cells and RPMI + 10% FBS for K562 cells). […] Protein concentration in clarified lysates was quantified using Pierce BCA Protein Assay Kit (Thermo Scientific) according to the manufacturer’s protocol. […]

Another assay deals with SD40–BRD4. In words: Immunoblot, endogenous SD40-tagged BRD4 in K562 cells. Particulars: 24 hrs. It counts as cell-based, human.
Source text: as §1, §2

In another assay the target is T2, TUB (Homo sapiens, UniProt P50607).
T2 construct: endogenous in cells; host or cells: HEK293T
Briefly: Western blot of TUB in HEK293T cells. Type of assay: cell-based. Particulars: 100-10,000 nM. Here is the method: HEK293T or K562 cells were plated at a density of 1.6 x 10^5 cells/well in a 24-well plate coated with poly-D-lysine (Corning) in 1 mL media (DMEM + 10% FBS for HEK293T cells and RPMI + 10% FBS for K562 cells). After 16–18 hrs, cells were treated with either DMSO or the indicated concentration of small molecules to a 0.5% final concentration of DMSO. Plates were incubated at 37 °C, 5% CO2 for 24 hours for all cell lines except endogenously tagged PLK1–SD40 HEK293T cells, which were incubated for 2 hours. Cells were washed with PBS and then lysed for 30 minutes at 4 °C in radioimmunoprecipitation assay (RIPA; 25 mM Tris-HCl, 150 mM NaCl, 1% NP-40, 1% sodium deoxycholate, 0.1% SDS, pH ~ 7.6) buffer containing 1 mM phenylmethylsulfonyl fluoride (PMSF; Sigma Aldrich) and 1 x EDTA-free protease inhibitor cocktail (Roche). Lysates were centrifuged for 20 min @18,000 x g to isolate the soluble fractions. Protein concentration in clarified lysates was quantified using Pierce BCA Protein Assay Kit (Thermo Scientific) according to the manufacturer’s protocol. Clarified lysates were mixed with NuPAGE LDS Sample Buffer (Thermo NP0007) containing 10 mM DTT and boiled for 10 minutes. Gel electrophoresis was performed on boiled samples using polyacrylamide gels (Invitrogen NP0329BOX) with equal amounts of total protein in each lane. […]
values were calculated using a Welch's t-test. […]

For the next assay, the target named is T3, full-length CRBN (Homo sapiens, UniProt Q96SW2).
T3 construct: Full-length CRBN MG-PACE circuit; expressed in transfected cells; host or cells: E. coli S2060
In words: Full-length CRBN MG-PACE circuit luminescence assay. It counts as cell-based. Particulars: pomalidomide; degron SD0; vs DMSO. The text has this:
To evolve ZFs that engage PT-179-bound CRBN, we constructed an MG-PACE circuit using the CRBN•IMiD•ZF molecular glue complex. […] We translationally fused CRBN to the DNA-binding protein RR69 and fused SD0 to the RNAP ω-subunit, then measured transcriptional activation by luminescence (Fig. 2A).
Chemically competent S2060 cells were co-transformed with accessory and complementary plasmids (Table S1).

Each structure is given as a SMILES string. pKd: −log10 of the molar value.

For `O=C1CCC(N2C(=O)c3ccc(N4CCOCC4)cc3C2=O)C(=O)N1` (centres unmarked) [PT-179], the pKd at DDB1•CRBN was 6.23. Further, in the assay with PLK1-SD40, the “PLK1 knockdown (in words)” value is “robust PLK1 knockdown”. Besides, the “SD40–BRD4 degradation (in words)” value in the assay with SD40–BRD4 is listed as “robust degradation”. Also, the “TUB degradation (in words)” value at TUB is listed as “does not degrade TUB”.

For the molecule `Nc1cccc2c1C(=O)N(C1CCC(=O)NC1=O)C2=O` (centres unmarked) [pomalidomide, reference compound], the maximal transcriptional activation on full-length CRBN worked out at 7 fold.
